Assay results reported in ChEMBL document CHEMBL5365419, “Identification of a Protein Arginine Methyltransferase 7 (PRMT7)/Protein Arginine Methyltransferase 9 (PRMT9) Inhibitor” (J Med Chem, 2023).
Active and inactive are the calls of the source. No cut-off for these calls is given here.

Assays:
[1] = target: T1, Protein arginine N-methyltransferase 7 (Homo sapiens) (UniProt Q9NVM4); assay: Inhibition of PRMT7 catalysed methylation of HNRNPA1 at R194 residue in HEK293T cells assessed as increase in ratio of abundance of unmethylated over methylated peptides at 10 to 50 uM by UHPLC- MS/MS analysis; format: cell-based; settings: dose 10-50 µM, time 24-48 hrs, TDE = time-dependent effect
T1 sequence (whole entry): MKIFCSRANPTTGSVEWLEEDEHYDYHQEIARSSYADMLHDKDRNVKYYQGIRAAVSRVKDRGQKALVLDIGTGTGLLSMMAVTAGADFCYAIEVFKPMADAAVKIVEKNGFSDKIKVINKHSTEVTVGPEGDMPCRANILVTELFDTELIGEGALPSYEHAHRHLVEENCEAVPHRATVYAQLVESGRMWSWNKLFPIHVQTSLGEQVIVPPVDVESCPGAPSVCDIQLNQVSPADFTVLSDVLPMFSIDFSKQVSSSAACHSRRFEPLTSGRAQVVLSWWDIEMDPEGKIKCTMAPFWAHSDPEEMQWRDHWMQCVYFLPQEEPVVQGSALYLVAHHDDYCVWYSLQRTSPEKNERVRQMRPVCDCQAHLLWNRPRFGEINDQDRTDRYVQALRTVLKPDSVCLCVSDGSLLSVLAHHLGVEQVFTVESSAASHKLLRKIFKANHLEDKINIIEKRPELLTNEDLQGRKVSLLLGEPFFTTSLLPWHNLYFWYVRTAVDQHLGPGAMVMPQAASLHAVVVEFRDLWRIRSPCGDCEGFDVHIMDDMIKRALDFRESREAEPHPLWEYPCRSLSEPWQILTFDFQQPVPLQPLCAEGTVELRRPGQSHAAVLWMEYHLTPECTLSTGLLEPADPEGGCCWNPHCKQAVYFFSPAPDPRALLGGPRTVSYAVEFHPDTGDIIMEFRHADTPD

[2] = target: Histone-lysine N-methyltransferase, H3 lysine-79 specific (Homo sapiens) (UniProt Q8TEK3); assay: Inhibition of N-terminal/C-terminal His/GST-tagged human recombinant DOT1L (1 to 416 residues) at 10 uM using oligo nucleosome as substrate and 3H-SAM as cosubstrate incubated for 60 mins by scintillation counter analysis
Chain of Histone-lysine N-methyltransferase, H3 lysine-79 specific (Homo sapiens) (Q8TEK3 whole entry, looked up, the tested form may be a part): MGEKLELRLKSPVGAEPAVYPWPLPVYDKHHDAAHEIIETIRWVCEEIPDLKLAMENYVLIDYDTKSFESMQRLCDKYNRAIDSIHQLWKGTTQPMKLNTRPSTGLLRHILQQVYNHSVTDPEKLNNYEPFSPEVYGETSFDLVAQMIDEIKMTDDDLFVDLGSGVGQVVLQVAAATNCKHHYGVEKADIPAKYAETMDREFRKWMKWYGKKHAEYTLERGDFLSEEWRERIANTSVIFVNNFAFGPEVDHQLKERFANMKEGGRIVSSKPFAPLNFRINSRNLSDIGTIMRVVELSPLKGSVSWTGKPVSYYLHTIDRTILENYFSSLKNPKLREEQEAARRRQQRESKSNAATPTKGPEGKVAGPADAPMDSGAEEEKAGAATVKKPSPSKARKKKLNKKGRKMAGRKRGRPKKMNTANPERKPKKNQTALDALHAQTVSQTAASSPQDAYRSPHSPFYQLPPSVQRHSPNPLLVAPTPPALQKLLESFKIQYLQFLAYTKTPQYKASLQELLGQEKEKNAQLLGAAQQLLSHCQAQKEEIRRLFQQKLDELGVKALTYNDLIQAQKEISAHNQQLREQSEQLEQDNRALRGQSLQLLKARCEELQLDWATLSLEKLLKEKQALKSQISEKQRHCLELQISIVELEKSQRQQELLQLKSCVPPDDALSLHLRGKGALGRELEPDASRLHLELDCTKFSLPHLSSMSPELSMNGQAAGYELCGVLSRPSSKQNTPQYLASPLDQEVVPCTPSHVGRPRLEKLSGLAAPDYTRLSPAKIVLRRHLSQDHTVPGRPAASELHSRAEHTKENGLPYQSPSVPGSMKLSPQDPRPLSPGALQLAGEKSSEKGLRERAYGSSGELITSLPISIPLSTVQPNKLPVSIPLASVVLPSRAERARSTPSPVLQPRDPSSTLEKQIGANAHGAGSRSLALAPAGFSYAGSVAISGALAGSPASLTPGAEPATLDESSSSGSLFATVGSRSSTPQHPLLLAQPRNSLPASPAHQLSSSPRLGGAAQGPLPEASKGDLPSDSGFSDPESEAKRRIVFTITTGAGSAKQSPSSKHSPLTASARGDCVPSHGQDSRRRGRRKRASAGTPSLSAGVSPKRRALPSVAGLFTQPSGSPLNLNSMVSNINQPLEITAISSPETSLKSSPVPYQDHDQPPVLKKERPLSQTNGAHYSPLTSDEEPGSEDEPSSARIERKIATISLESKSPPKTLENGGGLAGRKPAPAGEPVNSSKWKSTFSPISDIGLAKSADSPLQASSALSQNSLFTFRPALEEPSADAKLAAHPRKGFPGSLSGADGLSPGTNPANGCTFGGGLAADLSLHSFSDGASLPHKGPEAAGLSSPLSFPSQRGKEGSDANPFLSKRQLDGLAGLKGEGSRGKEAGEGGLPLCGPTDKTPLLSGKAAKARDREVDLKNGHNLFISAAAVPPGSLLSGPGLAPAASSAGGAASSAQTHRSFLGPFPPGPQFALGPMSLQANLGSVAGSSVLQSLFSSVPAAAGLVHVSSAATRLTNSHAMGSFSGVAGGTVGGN

[3] = target: T2, Histone-lysine N-methyltransferase SETD7 (Homo sapiens) (UniProt Q8WTS6); assay: Inhibition of N-terminal/C-terminal His/GST-tagged human recombinant SET7/9 (2 to 366 residues) at higher concentration using core histone as substrate and 3H-SAM as cosubstrate incubated for 60 mins by scintillation counter analysis
T2 sequence (whole entry): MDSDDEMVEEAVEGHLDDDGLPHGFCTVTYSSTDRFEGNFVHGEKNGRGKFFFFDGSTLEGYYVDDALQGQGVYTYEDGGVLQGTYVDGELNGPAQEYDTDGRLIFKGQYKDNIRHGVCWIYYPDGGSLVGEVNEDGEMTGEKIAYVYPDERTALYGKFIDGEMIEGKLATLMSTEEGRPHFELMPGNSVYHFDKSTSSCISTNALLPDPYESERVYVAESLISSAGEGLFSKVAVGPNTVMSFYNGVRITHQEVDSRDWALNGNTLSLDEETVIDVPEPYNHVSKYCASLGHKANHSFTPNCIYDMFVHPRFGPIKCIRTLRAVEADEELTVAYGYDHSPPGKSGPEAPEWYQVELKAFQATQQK

[4] = target: T1, Protein arginine N-methyltransferase 7 (Homo sapiens); assay: Inhibition of PRMT7 catalysed methylation of HSP70 at R469 residue in HEK293T cells assessed as increase in ratio of abundance of unmethylated over methylated peptides measured after 24 to 48 hrs by UHPLC- MS/MS analysis; format: cell-based; settings: dose 10-50 µM, time 24-48 hrs
[5] = target: T1, Protein arginine N-methyltransferase 7 (Homo sapiens); assay: Inhibition of PRMT7 catalysed methylation of HSP70 at R469 residue in HEK293T cells assessed as increase in ratio of abundance of unmethylated over methylated peptides at 10 to 50 uM by UHPLC- MS/MS analysis; format: cell-based; settings: dose 10-50 µM, time 24-48 hrs, TDE = time-dependent effect
Homo sapiens = species on record: Homo sapiens; assay: Inhibition of N-terminal/C-terminal His-tagged human recombinant MLL1 (3745 to 3969 residues)/WDR5 (22 to 334 residues)/RbBP5 (1 to 538 residues)/ASH2L (2 to 534 residues)/DPY-30 (1 to 99 residues) complex at higher concentration using oligo nucleosomes as substrate and 3H-SAM as cosubstrate incubated for 60 mins by scintillation counter analysis
[6] = target: T1, Protein arginine N-methyltransferase 7 (Homo sapiens); assay: Inhibition of PRMT7 catalysed methylation of HNRNPA1 at R194 residue in HEK293T cells assessed as increase in ratio of abundance of unmethylated over methylated peptides at 10 to 50 uM measured after 24 to 48 hrs by UHPLC- MS/MS analysis; format: cell-based; settings: dose 10-50 µM, time 24-48 hrs
[7] = target: T1, Protein arginine N-methyltransferase 7 (Homo sapiens); assay: Inhibition of PRMT7 catalysed methylation of HNRNPA1 at R194 residue in HEK293T cells assessed as increase in ratio of abundance of unmethylated over methylated peptides measured after 24 to 48 hrs by UHPLC- MS/MS analysis; format: cell-based; settings: dose 10-50 µM, time 24-48 hrs
[8] = target: T3, Histone-lysine N-methyltransferase SMYD3 (Homo sapiens) (UniProt Q9H7B4); assay: Inhibition of C-terminal His/GST-tagged human recombinant SMYD3 (2 to 428 residues) at higher concentration using 3H-SAM as substrate incubated for 60 mins by scintillation counter analysis
T3 sequence (whole entry): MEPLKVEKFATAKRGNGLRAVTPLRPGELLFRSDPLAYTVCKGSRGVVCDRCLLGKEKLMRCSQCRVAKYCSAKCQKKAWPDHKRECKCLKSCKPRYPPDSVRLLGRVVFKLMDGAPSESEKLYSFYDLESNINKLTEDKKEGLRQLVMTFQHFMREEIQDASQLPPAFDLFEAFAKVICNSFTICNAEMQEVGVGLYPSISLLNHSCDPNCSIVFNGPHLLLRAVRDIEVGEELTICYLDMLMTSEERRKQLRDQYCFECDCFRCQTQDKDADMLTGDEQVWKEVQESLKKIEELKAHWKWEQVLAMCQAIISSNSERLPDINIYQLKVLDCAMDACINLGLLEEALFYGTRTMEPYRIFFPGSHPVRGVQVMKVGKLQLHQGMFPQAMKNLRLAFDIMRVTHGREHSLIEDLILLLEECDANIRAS

[9] = target: Histone-lysine N-methyltransferase SUV39H2 (Homo sapiens) (UniProt Q9H5I1); assay: Inhibition of N-terminal/C-terminal His/GST-tagged human recombinant SUV39H2 (46 to 410 residues) at higher concentration using H3 histone as substrate and 3H-SAM as cosubstrate incubated for 60 mins by scintillation counter analysis
Chain of Histone-lysine N-methyltransferase SUV39H2 (Homo sapiens) (Q9H5I1 whole entry, the tested form may be a part): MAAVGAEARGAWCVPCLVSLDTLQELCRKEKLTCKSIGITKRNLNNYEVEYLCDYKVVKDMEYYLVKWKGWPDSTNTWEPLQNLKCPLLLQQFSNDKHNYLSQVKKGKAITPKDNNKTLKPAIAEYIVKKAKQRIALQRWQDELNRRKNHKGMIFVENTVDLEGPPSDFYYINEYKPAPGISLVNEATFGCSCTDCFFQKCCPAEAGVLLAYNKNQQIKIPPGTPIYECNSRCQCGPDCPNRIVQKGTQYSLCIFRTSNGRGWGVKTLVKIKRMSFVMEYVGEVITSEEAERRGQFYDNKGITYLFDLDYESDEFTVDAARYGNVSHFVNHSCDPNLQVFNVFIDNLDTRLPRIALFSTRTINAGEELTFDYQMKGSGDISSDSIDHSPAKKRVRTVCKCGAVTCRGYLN

[10] = target: T1, Protein arginine N-methyltransferase 7 (Homo sapiens); assay: Inhibition of PRMT7 catalysed methylation of HSP70 at R469 residue in HEK293T cells assessed as increase in ratio of abundance of unmethylated over methylated peptides at 10 to 50 uM measured after 24 to 48 hrs by UHPLC- MS/MS analysis; format: cell-based; settings: dose 10-50 µM, time 24-48 hrs
[11] = target: Histone-lysine N-methyltransferase ASH1L (Homo sapiens) (UniProt Q9NR48); assay: Inhibition of N-terminal His-tagged human recombinant ASH1L (2046 to 2330 residues) at higher concentration using oligo nucleosomes as substrate and 3H-SAM as cosubstrate incubated for 60 mins by scintillation counter analysis

- inhibition [1]: Tde
- inhibition [2]: Active
- inhibition [3]: inactive
- inhibition [4]: Dose-Dependent Effect
- inhibition [5]: Tde
- inhibition (Homo sapiens): inactive
- inhibition [6]: Active
- inhibition [7]: Dose-Dependent Effect
- inhibition [8]: inactive
- inhibition [9]: inactive
- inhibition [10]: Active
- inhibition [11]: inactive
SMILES: COC(=O)c1cc(O)c2cc(NC(=O)NCCCNC(=N)NC[C@H]3O[C@@H](n4cnc5c(N)ncnc54)[C@H](O)[C@@H]3O)cc(C(F)(F)F)c2c1
